Experimental data reported in patent US20200345746A1, “Oxazine Derivative for Use in the Prevention of Alzheimer's Disease in at Risk Patents” (Novartis AG, priority 2016, published 2020).

Key:
[1] = in vivo; details: APOE4-TR, mouse; for AUC(0-t): po
[2] = test system: Aβ42; test: 3-month dose-ranging study: Aβ42 in CSF; type: in vivo, human; details: for Aβ42 % change from baseline, Mean (SD) / Aβ42 % change from baseline, Median: CSF, 3 months
Description: (§1) This study is listed in ClinicalTrials.gov under the NCT02576639 Identifier code.
(§2) The primary purpose of this study was to expand on previous safety and tolerability data obtained over 2-week and 4-week duration in the first in human study and thereby allow initiation of future long-term efficacy trials in subjects at risk of AD. In addition, data relevant for Pharmacokinetic/Pharmacodynamic modeling was obtained in order to support dose selection decisions for future efficacy studies.
In the completed first-in-human and 3-month dose-ranging safety and tolerability clinical studies described in Examples 5 and 6, Aβ concentrations in CSF were obtained by means of lumbar punctures before the first dose (baseline) and respectively after 2 weeks and 3 months of multiple dosing. ApoE4 genotype also was obtained in the subjects who consented. The percent change from baseline in Aβ40 and Aβ42 concentrations was calculated in subjects who took the study treatment and had no major protocol deviation with potential impact on the evaluation of the pharmacodynamic effect. Tables 18 to 21 below provide summary statistics of the percent change from baseline by treatment group and ApoE genotype (E4 heterozygotes versus E4 non-carriers). Only one subject with CSF data was E4 homozygote (from the 3-month dose-ranging safety and tolerability study).

[3] = 3-month dose-ranging study: safety and tolerability; type: in vivo, human; details: healthy elderly subjects, once-daily 2, 10, 35 and 85 mg over three months
Description: as §1, §2

[4] = test system: Aβ40; test: Triton TX-100 soluble Aβ40 in APP23 mouse brain; type: in vivo; details: APP23 mice
Procedure: (§3) Frozen mouse forebrains were weighed and homogenized in 9 volumes (w/v) of ice-cold TBS-Complete (20 mM Tris-HCl pH 7.4, 137 mM NaCl, 1× Complete [Protease Inhibitor Cocktail Tablets: 1 836 145, Roche Diagnostics GmbH, Penzberg, Germany]) by sonication (90% duty cycle, output control 5, 40-55 pulses, [Sonifier 450, Branson]). After homogenization several 50 μl aliquots were prepared for analysis and were stored at −80° C.
Human Aβ40 and 42 in mice was determined with the Meso Scale Discovery (MSD) 96-well MULTI-ARRAY human/rodent (6E10) Aβ40/42 Assay (Meso Scale Discovery, Rockville, Md., USA). The assay was performed according to the manufacturer's instructions except for the calibration curve and the sample preparations. TritonX-100 (TX-100) soluble Aβ40 and 42 was extracted from forebrain with 1% TX-100 using a 50 μl aliquot of each 1:10 forebrain homogenate, mixed with 50 μl 2% TX-100 in TBS complete (20 mM Tris-HCl pH 7.4, 137 mM NaCl, 1× Complete [Protease Inhibitor Cocktail Tablets: 1 836 145, Roche Diagnostics GmbH, Penzberg Germany]) to reach a final concentration of 1% TX-100 and a 1:20 forebrain dilution. The samples were incubated for 15 min on ice and vortexed every 5 min. The samples were ultra-centrifuged (100000×g, 4° C., 15 min) and 50 μl of the clear supernatants were transferred to fresh tubes. The supernatants were further diluted 1:5 in 3% Blocker A solution (from kit) to a final forebrain dilution of 1:100 and applied to the plate.
The calibration curve was prepared in a corresponding dilution of 1% Blocker A solution spiked with synthetic Aβ1-40 peptide (1.56-100 pg/ml) except for non-transgenic mouse brain samples: In this case, the calibration curve was prepared in a correspondingly diluted APP knockout mouse forebrain spiked with synthetic Aβ1-40 peptide (1.56-100 pg/ml). For all samples and standards 25 μl were applied per well. For each determination duplicate wells were done. The mean values from the duplicate wells were used for calculations. The relative units for samples and standards were imported into SOFTmax PRO 4.0 for calculation of standard curves and quantification of samples.
(§4) Brain homogenates were extracted with 1% Triton X-100 in buffer and the resulting supernatant was considered to represent soluble forms of APP metabolites. In addition to Aβ40 and 42, we determined the N-terminal APP fragments sAPPα (direct cleavage product of α-secretase) and sAPPβ (Swe) (direct product of BACE1 cleavage). […] Since no change in the APP expression and Aβ generation is known to happen during this age, it is assumed that the increased values in the vehicle group (18-20 mo old) arise from “leakage” out of the Aβ deposits (which increase several fold, see below).

[5] = test system: sAPPα; test: Triton TX-100 soluble sAPPα in APP23 mouse brain; type: in vivo; details: APP23 mice
Procedure: as §3, §4

What does the source list for `C[C@@]1(c2nc(NC(=O)c3ncc(C(F)(F)F)cc3Cl)ccc2F)CO[C@@](C)(C(F)(F)F)C(N)=N1` [Compound 1, N-(6-((3R,6R)-5-amino-3,6-dimethyl-6-(trifluoromethyl)-3,6-dihydro-2H-1,4-oxazin-3-yl)-5-fluoropyridin-2-yl)-3-chloro-5-(trifluoromethyl)picolinamide]?
exposure reduction 4h/24h [1]: 2-5 fold; AUCbrain (AUC0-24 h) ([1]; 3 umol/kg): 8.67 µmol·h/kg; AUCbrain (AUC0-24 h) ([1]; 10 umol/kg): 15.83 µmol·h/kg; AUCbrain (AUC0-24 h) ([1]; 30 umol/kg): 49.82 µmol·h/kg; AUC(0-t) ([1]; 3 umol/kg): 1.56 µM·h; AUC(0-t) ([1]; 10 umol/kg): 4.86 µM·h; AUC(0-t) ([1]; 30 umol/kg): 14.9 µM·h; Aβ42 % change from baseline, Mean (SD) ([2]; 2 mg, E4 heterozygotes): −23 (9) %; Aβ42 % change from baseline, Median ([2]; 2 mg, E4 heterozygotes): −23%; Aβ42 % change from baseline, Mean (SD) ([2]; 2 mg, E4 non-carriers): −24 (9) %; Aβ42 % change from baseline, Median ([2]; 2 mg, E4 non-carriers): −21%; Aβ42 % change from baseline, Mean (SD) ([2]; 10 mg, E4 heterozygotes): −66 (7) %; Aβ42 % change from baseline, Median ([2]; 10 mg, E4 heterozygotes): −63%; Aβ42 % change from baseline, Mean (SD) ([2]; 10 mg, E4 non-carriers): −65 (5) %; Aβ42 % change from baseline, Median ([2]; 10 mg, E4 non-carriers): −66%; Aβ42 % change from baseline, Mean (SD) ([2]; 35 mg, E4 heterozygotes): −83 (5) %; Aβ42 % change from baseline, Median ([2]; 35 mg, E4 heterozygotes): −85%; Aβ42 % change from baseline, Mean (SD) ([2]; 35 mg, E4 non-carriers): −81 (6) %; Aβ42 % change from baseline, Median ([2]; 35 mg, E4 non-carriers): −83%; Aβ42 % change from baseline, Mean (SD) ([2]; 85 mg, E4 heterozygotes): −88 (2) %; Aβ42 % change from baseline, Median ([2]; 85 mg, E4 heterozygotes): −88%; Aβ42 % change from baseline, Mean (SD) ([2]; 85 mg, E4 non-carriers): −90 (2) %; Aβ42 % change from baseline, Median ([2]; 85 mg, E4 non-carriers): −90%; Aβ42 in CSF percent change from baseline, Difference (90% CI) Cmpd 1-Placebo ([2]; month 3, 2 mg QD): −21.24 (−24.28, −18.21) %; Aβ42 in CSF percent change from baseline, LSmean (SE) ([2]; month 3, 2 mg QD): −24.00 (1.277) %; Aβ42 in CSF percent change from baseline, Difference (90% CI) Cmpd 1-Placebo ([2]; month 3, 10 mg QD): −61.39 (−64.47, −58.31) %; Aβ42 in CSF percent change from baseline, LSmean (SE) ([2]; month 3, 10 mg QD): −64.15 (1.308) %; Aβ42 in CSF percent change from baseline, Difference (90% CI) Cmpd 1-Placebo ([2]; month 3, 35 mg QD): −79.73 (−82.73, −76.73) %; Aβ42 in CSF percent change from baseline, LSmean (SE) ([2]; month 3, 35 mg QD): −82.49 (1.250) %; Aβ42 in CSF percent change from baseline, Difference (90% CI) Cmpd 1-Placebo ([2]; month 3, 85 mg QD): −86.62 (−89.76, −83.49) %; Aβ42 in CSF percent change from baseline, LSmean (SE) ([2]; month 3, 85 mg QD): −89.38 (1.348) %; safety and tolerability [3]: safe and tolerated; Aβ40 change vs vehicle (Triton TX-100 soluble, brain) ([4]; 0.03 g/kg vs vehicle): −4.6%; Aβ40 change vs vehicle (Triton TX-100 soluble, brain) ([4]; 0.3 g/kg vs vehicle): −43.7%; treatment effects on soluble Aβ species (brain tissue and CSF Aβ40) ([4]; high dose): −43.7 to −77%; treatment effects on soluble Aβ species (brain tissue and CSF Aβ40) ([4]; low dose): −4.6 to −20%; sAPPα change vs vehicle ([5]; 0.03 g/kg vs vehicle): +44%; increase in sAPPα ([5]; 0.3 g/kg dose): 3 fold; sAPPα change vs vehicle ([5]; 0.3 g/kg vs vehicle): +279.8%
